Experimental data from PubChem BioAssay (NCI).
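Following 48 hours of exposure in 96-well plates, responses at five concentrations were used to interpolate endpoints linearly. GI50 = concentration required for 50% inhibition of growth. TGI: total growth inhibition.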

How the values were obtained:
Test in all cases: inhibition of tumour cell growth, NCI panel, 48 h
[1] = test system: SF-295 CNS
[2] = test system: BT-549 breast
[3] = test system: ACHN renal
[4] = test system: RPMI-8226 leukemia
[5] = test system: SNB-19 CNS
[6] = test system: CCRF-CEM leukemia
[7] = test system: MDA-MB-231 breast
[8] = test system: OVCAR-5 ovarian
[9] = test system: NCI/ADR-RES ovarian
[10] = test system: DU-145 prostate
[11] = test system: HCT-116 colon
[12] = test system: SF-539 CNS
[13] = test system: SW-620 colon
[14] = test system: MOLT-4 leukemia
[15] = test system: UACC-62 melanoma
[16] = test system: MCF7 breast
[17] = test system: T-47D breast
[18] = test system: HOP-62 NSCLC
[19] = test system: SNB-75 CNS
[20] = test system: UO-31 renal
[21] = test system: HT29 colon
[22] = test system: SF-268 CNS
[23] = test system: UACC-257 melanoma
[24] = test system: RXF 393 renal
[25] = test system: U251 CNS
[26] = test system: NCI-H23 lung
[27] = test system: MALME-3M melanoma
[28] = test system: M14 melanoma
[29] = test system: NCI-H226 lung
[30] = test system: K-562 leukemia
[31] = test system: CAKI-1 renal
[32] = test system: HS 578T breast
[33] = test system: SK-MEL-28 melanoma
[34] = test system: SK-MEL-2 melanoma
[35] = test system: TK-10 renal
[36] = test system: KM12 colon
[37] = test system: SR leukemia
[38] = test system: HOP-92 NSCLC
[39] = test system: SK-MEL-5 melanoma
[40] = test system: HCC-2998 colon
[41] = test system: OVCAR-8 ovarian
[42] = test system: COLO 205 colon
[43] = test system: MDA-MB-435
[44] = test system: HCT-15 colon
[45] = test system: SK-OV-3 ovarian
[46] = test system: A498 renal
[47] = test system: HL-60(TB) leukemia
[48] = test system: 786-0 renal
[49] = test system: NCI-H522 lung
[50] = test system: LOX IMVI melanoma
[51] = test system: NCI-H460 lung
[52] = test system: SN12C renal
[53] = test system: EKVX NSCLC
[54] = test system: OVCAR-4 ovarian
[55] = test system: IGROV1 ovarian
[56] = test system: PC-3 prostate
[57] = test system: OVCAR-3 ovarian
[58] = test system: A549 NSCLC

COc1ccc2c(CN3CCC(CO)CC3)cc3cc4c(cc3c2c1)OCO4
GI50 [1]: 241 nM
TGI [1]: 3.29 µM
GI50 [2]: 600 nM
TGI [2]: 3.87 µM
GI50 [3]: 82.5 nM
TGI [3]: 450 nM
GI50 [4]: 256 nM
TGI [4]: 919 nM
GI50 [5]: 392 nM
TGI [5]: 12.1 µM
TGI [6]: 0.373 µM
GI50 [7]: 1350 nM
TGI [7]: 12.3 µM
GI50 [8]: 344 nM
TGI [8]: 10.6 µM
GI50 [9]: 255 nM
TGI [9]: 10.4 µM
GI50 [10]: 250 nM
TGI [10]: 12.6 µM
GI50 [11]: 69 nM
TGI [11]: 529 nM
GI50 [12]: 254 nM
TGI [12]: 1.64 µM
GI50 [13]: 141 nM
TGI [13]: 11 µM
GI50 [14]: 175 nM
TGI [14]: 1440 nM
GI50 [15]: 235 nM
TGI [15]: 539 nM
GI50 [16]: 211 nM
TGI [16]: 2550 nM
GI50 [17]: 418 nM
TGI [17]: 9.17 µM
GI50 [18]: 272 nM
TGI [18]: 2.03 µM
GI50 [19]: 474 nM
TGI [19]: 2 µM
GI50 [20]: 252 nM
TGI [20]: 19 µM
GI50 [21]: 134 nM
TGI [21]: 2.6 µM
GI50 [22]: 176 nM
TGI [22]: 2.47 µM
GI50 [23]: 156 nM
TGI [23]: 393 nM
GI50 [24]: 84.3 nM
TGI [24]: 0.847 µM
GI50 [25]: 265 nM
TGI [25]: 8.82 µM
GI50 [26]: 298 nM
TGI [26]: 1.5 µM
GI50 [27]: 199 nM
TGI [27]: 799 nM
GI50 [28]: 296 nM
TGI [28]: 1260 nM
GI50 [29]: 225 nM
TGI [29]: 0.56 µM
GI50 [30]: 150 nM
TGI [30]: 3.07 µM
GI50 [31]: 289 nM
TGI [31]: 3.42 µM
GI50 [32]: 500 nM
TGI [32]: 12.4 µM
GI50 [33]: 326 nM
TGI [33]: 1.15 µM
GI50 [34]: 193 nM
TGI [34]: 0.636 µM
GI50 [35]: 407 nM
TGI [35]: 8.65 µM
GI50 [36]: 280 nM
TGI [36]: 4.34 µM
GI50 [37]: 66.6 nM
TGI [37]: 0.712 µM
GI50 [38]: 91.1 nM
TGI [38]: 0.633 µM
GI50 [39]: 172 nM
TGI [39]: 495 nM
GI50 [40]: 194 nM
TGI [40]: 1410 nM
GI50 [41]: 84.4 nM
TGI [41]: 2190 nM
GI50 [42]: 122 nM
TGI [42]: 1.07 µM
GI50 [43]: 275 nM
TGI [43]: 1.41 µM
GI50 [44]: 170 nM
TGI [44]: 3.49 µM
GI50 [45]: 326 nM
TGI [45]: 3.83 µM
GI50 [46]: 211 nM
TGI [46]: 0.554 µM
GI50 [47]: 286 nM
TGI [47]: 1.72 µM
GI50 [48]: 227 nM
TGI [48]: 4.65 µM
GI50 [49]: 135 nM
TGI [49]: 363 nM
GI50 [50]: 144 nM
TGI [50]: 0.49 µM
GI50 [51]: 143 nM
TGI [51]: 3.21 µM
GI50 [52]: 247 nM
TGI [52]: 4.37 µM
GI50 [53]: 415 nM
TGI [53]: 6.29 µM
GI50 [54]: 438 nM
TGI [54]: 11.4 µM
GI50 [55]: 305 nM
TGI [55]: 11.6 µM
GI50 [56]: 236 nM
TGI [56]: 1020 nM
GI50 [57]: 316 nM
TGI [57]: 3.39 µM

CCN(CC)c1ccc2[nH]c3c(C(N)=O)cc(=O)c(=O)c=3oc2c1
GI50 [1]: 1570 nM
TGI [1]: 6.35 µM
GI50 [2]: 1700 nM
TGI [2]: 5.17 µM
GI50 [3]: 1840 nM
TGI [3]: > 100000 nM
GI50 [4]: 383 nM
TGI [4]: 4700 nM
GI50 [5]: 2680 nM
TGI [5]: 24.5 µM
GI50 [6]: 1900 nM
TGI [6]: 8.19 µM
GI50 [7]: 2900 nM
TGI [7]: > 100 µM
GI50 [8]: 3660 nM
TGI [8]: 33.4 µM
GI50 [9]: 1720 nM
TGI [9]: 11.8 µM
GI50 [10]: 1870 nM
TGI [10]: 7.39 µM
GI50 [11]: 281 nM
TGI [11]: 1040 nM
GI50 [12]: 597 nM
TGI [12]: 14.1 µM
GI50 [13]: 2360 nM
TGI [13]: > 100 µM
GI50 [15]: 1590 nM
TGI [15]: 4750 nM
GI50 [16]: 1680 nM
TGI [16]: > 100000 nM
GI50 [17]: 2580 nM
TGI [17]: > 100 µM
GI50 [18]: 445 nM
TGI [18]: 15.4 µM
GI50 [19]: 2040 nM
TGI [19]: 8.59 µM
GI50 [20]: 1070 nM
TGI [20]: 4.12 µM
GI50 [21]: 2970 nM
TGI [21]: 12.9 µM
GI50 [22]: 1980 nM
TGI [22]: 15.1 µM
GI50 [23]: 683 nM
TGI [23]: 3250 nM
GI50 [24]: 1370 nM
TGI [24]: 6.39 µM
GI50 [25]: 912 nM
TGI [25]: 5.75 µM
GI50 [26]: 1400 nM
TGI [26]: 5.17 µM
GI50 [27]: 1160 nM
TGI [27]: 2960 nM
GI50 [28]: 1610 nM
TGI [28]: 4170 nM
GI50 [29]: 2490 nM
TGI [29]: 7.54 µM
GI50 [30]: 1930 nM
TGI [30]: > 100 µM
GI50 [31]: 1090 nM
TGI [31]: 3.44 µM
GI50 [32]: 663 nM
TGI [32]: > 100 µM
GI50 [33]: 3760 nM
TGI [33]: 17.2 µM
GI50 [58]: 1750 nM
TGI [58]: 5.12 µM
GI50 [34]: 1650 nM
TGI [34]: 6.1 µM
GI50 [36]: 2940 nM
TGI [36]: 11.3 µM
GI50 [37]: 2840 nM
TGI [37]: 8.74 µM
GI50 [38]: 2820 nM
TGI [38]: 7.83 µM
GI50 [39]: 1220 nM
TGI [39]: 2490 nM
GI50 [41]: 2050 nM
TGI [41]: > 100000 nM
GI50 [42]: 3090 nM
TGI [42]: 11.3 µM
GI50 [43]: 377 nM
TGI [43]: 9.78 µM
GI50 [44]: 1510 nM
TGI [44]: > 100 µM
GI50 [46]: 1920 nM
TGI [46]: 9.28 µM
GI50 [47]: 1660 nM
TGI [47]: 5.08 µM
GI50 [48]: 2420 nM
TGI [48]: > 100 µM
GI50 [50]: 581 nM
TGI [50]: 6.3 µM
GI50 [51]: 1340 nM
TGI [51]: 12.6 µM
GI50 [52]: 2090 nM
TGI [52]: > 100 µM
GI50 [53]: 2790 nM
TGI [53]: 15.7 µM
GI50 [54]: 2030 nM
TGI [54]: 11.5 µM
GI50 [55]: 310 nM
TGI [55]: 1.24 µM
GI50 [56]: 2520 nM
TGI [56]: > 100000 nM
GI50 [57]: 680 nM
TGI [57]: 4.3 µM
